Test results taken from patent US20250018047A1, “METHODS AND COMPOSITIONS FOR TARGETED PROTEIN DEGRADATION” (Ranok Therapeutics (Hangzhou) Co. Ltd., priority 2021, published 2025).
Where a name gives a salt, the structure may show the parent alone.

Experiments:
KRAS(G12D)/SOS1 = biological target: T1, KRAS(G12D)/SOS1 (Homo sapiens, UniProt P01116, G12D); experiment: KRAS(G12D)/SOS1 homogeneous time-resolved fluorescence (HTRF) assay; format: binding; settings: absence of GTP, 4° C. for 3 hr
T1 construct: purchased Cisbio 63ADK000CB16PEG
Description: The test compound was mixed and incubated with reaction components, incubated in a sealed plate at 4° C. for 3 hr and fluorescence was measured using a PerkinElmer Envision plate reader.

[1] = test system: AsPC-1 human pancreatic adenocarcinoma; experiment: CellTiter-Glo cancer cell line proliferation assay, AsPC-1; format: cell-based; settings: Homo sapiens, ASPC1, 24 hr
Procedure, shortened: (§1)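 Cells plated at 4,000/well, grown 24 h at 37 °C/5% CO2, then exposed to compound concentration series (0.5% DMSO final) for 24 h. Viability read by CellTiter-Glo luminescence; IC50 values calculated.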

[2] = test system: A-427 human lung carcinoma; experiment: CellTiter-Glo cancer cell line proliferation assay, A-427; format: cell-based; settings: Homo sapiens, A-427, 24 hr, read-out: A427 at 24 hrs, IC50
Procedure, shortened: as §1

[3] = biological target: BA/F3-KRAS(G12D) murine pro-B cell line stably expressing KRAS(G12D) (Homo sapiens, UniProt P01116, G12D, cells depend on it); experiment: CellTiter-Glo cancer cell line proliferation assay, BA/F3-KRAS(G12D); format: cell-based; settings: 24 hr, read-out: BAF3 at 24 hrs, IC50
Description: The following cancer cell lines were employed: AsPC-1 human pancreatic adenocarcinoma (ATCC, #CRL-1682); A-427 human lung carcinoma (ATCC, #HTB-53); BA/F3-KRAS(G12D) murine pro-B cell line stably expressing KRAS(G12D) (Precedo, Hefei, China). Cell lines were cultured according to ATCC and recommendations. BA/F3-KRAS(G12D) cells were cultured in RPMI 1640 media with 10% fetal calf serum, 100 units/mL penicillin and […] streptomycin, and 1% glutamine.
CellTiter-Glo® Reagent Cancer Cell Line Proliferation Assays
Cells were plated in 96-well tissue culture plates at 4,000 cells/well and incubated at 37° C./5% CO2 for 24 hr in 100 μl of media. 3-fold serial dilutions of each test compound were prepared ranging from 20 μM to 1.02 nM. Cells were then treated with test compounds at various concentrations with a final concentration of 0.5% DMSO/well, and then incubated at 37° C./5% CO2 for 24 hr. 100 μl of CellTiter-Glo® Reagent (Promega Corporation, Madison, WI) was added to each well and processed according manufacturer's protocol. Results were analyzed and IC50-values were calculated in GraphPad 7 software.

T1 sequence (P01116 1-188 isoform P01116-2 G12D): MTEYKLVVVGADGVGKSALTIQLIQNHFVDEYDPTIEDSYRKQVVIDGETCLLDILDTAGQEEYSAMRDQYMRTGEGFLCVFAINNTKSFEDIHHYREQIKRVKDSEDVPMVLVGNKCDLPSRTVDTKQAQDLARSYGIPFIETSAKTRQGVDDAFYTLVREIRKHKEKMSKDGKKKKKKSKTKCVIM
BA/F3-KRAS(G12D) murine pro-B cell line stably expressing KRAS(G12D), sequence (P01116 whole entry G12D): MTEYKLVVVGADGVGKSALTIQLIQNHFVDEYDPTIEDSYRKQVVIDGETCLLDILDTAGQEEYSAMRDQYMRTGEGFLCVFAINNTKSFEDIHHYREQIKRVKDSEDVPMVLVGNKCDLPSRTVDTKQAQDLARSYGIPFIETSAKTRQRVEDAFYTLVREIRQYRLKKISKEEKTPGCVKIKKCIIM

For `C#Cc1cccc2cccc(-c3ncc4c(N5CC6CCC(C5)N6)nc(OC[C@@H]5C[C@H](N6CCN(CC7CCN(c8ccc9c(c8)C(=O)N(C8CCC(=O)NC8=O)C9=O)CC7)CC6)CN5C)nc4c3F)c12` (stereo partly drawn) [Compound 5, 5-(4-((4-((3S,5S)-5-(((4-(3,8-diazabicyclo[3.2.1]octan-3-yl)-7-(8-ethynylnaphthalen-1-yl)-8-fluoropyrido[4,3-d]pyrimidin-2-yl)oxy)methyl)-1-methylpyrrolidin-3-yl)piperazin-1-yl)methyl)piperidin-1-yl)-2-(2,6-dioxopiperidin-3-yl)isoindoline-1,3-dione hydrochloride], which IC50 (KRAS(G12D)/SOS1) is on record?
The IC50 was < 0.1 µM.

What about the IC50 [1] of the same molecule?
Its IC50 is > 1 µM.

What about the IC50 [2] of the same molecule?
Its IC50 is > 1 µM.

And the GI50 [3]?
Its GI50 is 0.1 to 1 µM.

Which results are given for `C#Cc1cccc2cccc(-c3ncc4c(N5CC6CCC(C5)N6)nc(OC[C@@H]5C[C@H](N6CCN(CC7CCN(c8cccc9c8C(=O)N(C8CCC(=O)NC8=O)C9=O)CC7)CC6)CN5C)nc4c3F)c12` (stereo partly drawn) [Compound 6, 4-(4-((4-((3S,5S)-5-(((4-(3,8-diazabicyclo[3.2.1]octan-3-yl)-7-(8-ethynylnaphthalen-1-yl)-8-fluoropyrido[4,3-d]pyrimidin-2-yl)oxy)methyl)-1-methylpyrrolidin-3-yl)piperazin-1-yl)methyl)piperidin-1-yl)-2-(2,6-dioxopiperidin-3-yl)isoindoline-1,3-dione hydrochloride]?
IC50 (KRAS(G12D)/SOS1): < 0.1 µM; IC50 [1]: > 1 µM; IC50 [2]: > 1 µM; GI50 [3]: > 1 µM

For `C#Cc1cccc2cccc(-c3ncc4c(N5CC6CCC(C5)N6)nc(OC[C@@H]5C[C@H](N6CCN(Cc7ccc8c(c7)C(=O)N(C7CCC(=O)NC7=O)C8=O)CC6)CN5C)nc4c3F)c12` (stereo partly drawn) [Compound 7, 5-((4-((3S,5S)-5-(((4-(3,8-diazabicyclo[3.2.1]octan-3-yl)-7-(8-ethynylnaphthalen-1-yl)-8-fluoropyrido[4,3-d]pyrimidin-2-yl)oxy)methyl)-1-methylpyrrolidin-3-yl)piperazin-1-yl)methyl)-2-(2,6-dioxopiperidin-3-yl)isoindoline-1,3-dione formate], which IC50 (KRAS(G12D)/SOS1) is on record?
The IC50 was < 0.1 µM.

What about the IC50 [1] of the same molecule?
The IC50 was > 1 µM.

What about the IC50 [2] of the same molecule?
The IC50 was > 1 µM.

What about the GI50 [3] of the same molecule?
Its GI50 is > 1 µM.

How did the IC50 (KRAS(G12D)/SOS1) turn out when `C#Cc1cccc2cccc(-c3ncc4c(N5CC6CCC(C5)N6)nc(OC[C@@H]5C[C@H](N6CCN(C(=O)C7CCN(c8ccc9c(c8)C(=O)N(C8CCC(=O)NC8=O)C9=O)CC7)CC6)CN5C)nc4c3F)c12` (stereo partly drawn) [Compound 8, 5-(4-(4-((3S,5S)-5-(((4-(3,8-diazabicyclo[3.2.1]octan-3-yl)-7-(8-ethynylnaphthalen-1-yl)-8-fluoropyrido[4,3-d]pyrimidin-2-yl)oxy)methyl)-1-methylpyrrolidin-3-yl)piperazine-1-carbonyl)piperidin-1-yl)-2-(2,6-dioxopiperidin-3-yl)isoindoline-1,3-dione hydrochloride] was run?
The IC50 was < 0.1 µM.

What about the IC50 [1] of the same molecule?
Its IC50 is > 1 µM.

And the IC50 [2]?
The IC50 was > 1 µM.

And the GI50 [3]?
The GI50 was > 1 µM.

For `CN1C[C@@H](N2CCC(C(=O)N3CCN(c4ccc5c(c4)C(=O)N(C4CCC(=O)NC4=O)C5=O)CC3)CC2)C[C@H]1COc1nc(N2CC3CCC(C2)N3)c2cnc(-c3cccc4cccc(Cl)c34)c(F)c2n1` (stereo partly drawn) [Compound 9, 5-(4-(1-((3S,5S)-5-(((4-(3,8-diazabicyclo[3.2.1]octan-3-yl)-7-(8-chloronaphthalen-1-yl)-8-fluoropyrido[4,3-d]pyrimidin-2-yl)oxy)methyl)-1-methylpyrrolidin-3-yl)piperidine-4-carbonyl)piperazin-1-yl)-2-(2,6-dioxopiperidin-3-yl)isoindoline-1,3-dione hydrochloride], which IC50 (KRAS(G12D)/SOS1) is on record?
The IC50 was < 0.1 µM.

What about the IC50 [1] of the same molecule?
Its IC50 is > 1 µM.

What about the IC50 [2] of the same molecule?
The IC50 was > 1 µM.

What about the GI50 [3] of the same molecule?
Its GI50 is > 1 µM.

With `CN1C[C@@H](N2CCC(C(=O)Nc3ccc4c(c3)C(=O)N(C3CCC(=O)NC3=O)C4=O)CC2)C[C@H]1COc1nc(N2CC3CCC(C2)N3)c2cnc(-c3cccc4cccc(Cl)c34)c(F)c2n1` (stereo partly drawn) [Compound 10, 1-((3S,5S)-5-(((4-(3,8-diazabicyclo[3.2.1]octan-3-yl)-7-(8-chloronaphthalen-1-yl)-8-fluoropyrido[4,3-d]pyrimidin-2-yl)oxy)methyl)-1-methylpyrrolidin-3-yl)-N-(2-(2,6-dioxopiperidin-3-yl)-1,3-dioxoisoindolin-5-yl)piperidine-4-carboxamide formate] as the molecule, how does the IC50 (KRAS(G12D)/SOS1) read?
Its IC50 is < 0.1 µM.

What about the IC50 [1] of the same molecule?
The IC50 was > 1 µM.

What about the IC50 [2] of the same molecule?
Its IC50 is > 1 µM.

What about the GI50 [3] of the same molecule?
The GI50 was > 1 µM.

Which results are given for `CN1C[C@@H](N2CCC(C(=O)NCCOCCOc3ccc4c(c3)C(=O)N(C3CCC(=O)NC3=O)C4=O)CC2)C[C@H]1COc1nc(N2CC3CCC(C2)N3)c2cnc(-c3cccc4cccc(Cl)c34)c(F)c2n1` (stereo partly drawn) [Compound 11, 1-((3S,5S)-5-(((4-(3,8-diazabicyclo[3.2.1]octan-3-yl)-7-(8-chloronaphthalen-1-yl)-8-fluoropyrido[4,3-d]pyrimidin-2-yl)oxy)methyl)-1-methylpyrrolidin-3-yl)-N-(2-(2-((2-(2,6-dioxopiperidin-3-yl)-1,3-dioxoisoindolin-5-yl)oxy)ethoxy)ethyl)piperidine-4-carboxamide formate]?
IC50 (KRAS(G12D)/SOS1): 0.1 to 1 µM; IC50 [1]: > 1 µM; IC50 [2]: > 1 µM; GI50 [3]: > 1 µM

Which results are given for `CN1C[C@@H](N2CCC(C(=O)NCCOc3ccc4c(c3)C(=O)N(C3CCC(=O)NC3=O)C4=O)CC2)C[C@H]1COc1nc(N2CC3CCC(C2)N3)c2cnc(-c3cccc4cccc(Cl)c34)c(F)c2n1` (stereo partly drawn) [Compound 12, 1-((3S,5S)-5-(((4-(3,8-diazabicyclo[3.2.1]octan-3-yl)-7-(8-chloronaphthalen-1-yl)-8-fluoropyrido[4,3-d]pyrimidin-2-yl)oxy)methyl)-1-methylpyrrolidin-3-yl)-N-(2-((2-(2,6-dioxopiperidin-3-yl)-1,3-dioxoisoindolin-5-yl)oxy)ethyl)piperidine-4-carboxamide hydrochloride]?
IC50 (KRAS(G12D)/SOS1): 0.1 to 1 µM; IC50 [1]: > 1 µM; IC50 [2]: > 1 µM; GI50 [3]: > 1 µM

Which results are given for `C#Cc1cccc2cccc(-c3ncc4c(N5CC6CCC(C5)N6)nc(OC[C@@H]5CC[C@H](CN6CCN(CC7CCN(c8ccc9c(c8)C(=O)N(C8CCC(=O)NC8=O)C9=O)CC7)CC6)N5C)nc4c3F)c12` (stereo partly drawn) [Compound 13, 5-(4-((4-(((2R,5S)-5-(((4-(3,8-diazabicyclo[3.2.1]octan-3-yl)-7-(8-ethynylnaphthalen-1-yl)-8-fluoropyrido[4,3-d]pyrimidin-2-yl)oxy)methyl)-1-methylpyrrolidin-2-yl)methyl)piperazin-1-yl)methyl)piperidin-1-yl)-2-(2,6-dioxopiperidin-3-yl)isoindoline-1,3-dione hydrochloride]?
IC50 (KRAS(G12D)/SOS1): < 0.1 µM; IC50 [1]: > 1 µM; IC50 [2]: > 1 µM; GI50 [3]: 0.1 to 1 µM

For `C#Cc1cccc2cccc(-c3ncc4c(N5CC6CCC(C5)N6)nc(OC[C@@H]5CC[C@H](CN6CCN(CC7CCN(c8cccc9c8C(=O)N(C8CCC(=O)NC8=O)C9=O)CC7)CC6)N5C)nc4c3F)c12` (stereo partly drawn) [Compound 14, 4-(4-((4-(((2R,5S)-5-(((4-(3,8-diazabicyclo[3.2.1]octan-3-yl)-7-(8-ethynylnaphthalen-1-yl)-8-fluoropyrido[4,3-d]pyrimidin-2-yl)oxy)methyl)-1-methylpyrrolidin-2-yl)methyl)piperazin-1-yl)methyl)piperidin-1-yl)-2-(2,6-dioxopiperidin-3-yl)isoindoline-1,3-dione], which IC50 (KRAS(G12D)/SOS1) is on record?
Its IC50 is < 0.1 µM.

What about the IC50 [1] of the same molecule?
The IC50 was 0.1 to 1 µM.

What about the IC50 [2] of the same molecule?
Its IC50 is > 1 µM.

What about the GI50 [3] of the same molecule?
The GI50 was 0.1 to 1 µM.

With `C#Cc1cccc2cccc(-c3ncc4c(N5CC6CCC(C5)N6)nc(OCCN5CCN(C(=O)C6CCN(c7ccc8c(c7)CN(C7CCC(=O)NC7=O)C8=O)CC6)CC5)nc4c3F)c12` (stereo not drawn) [Compound 17, 3-(5-(4-(4-(2-((4-(3,8-diazabicyclo[3.2.1]octan-3-yl)-7-(8-ethynylnaphthalen-1-yl)-8-fluoropyrido[4,3-d]pyrimidin-2-yl)oxy)ethyl)piperazine-1-carbonyl)piperidin-1-yl)-1-oxoisoindolin-2-yl)piperidine-2,6-dione formate] as the molecule, how does the IC50 (KRAS(G12D)/SOS1) read?
The IC50 was < 0.1 µM.

What about the IC50 [1] of the same molecule?
The IC50 was > 1 µM.

And the IC50 [2]?
The IC50 was > 1 µM.

What about the GI50 [3] of the same molecule?
The GI50 was > 1 µM.

How did the IC50 (KRAS(G12D)/SOS1) turn out when `CN1C[C@@H](N2CCC(C(=O)N3CCN(c4ccc5c(c4)C(=O)N(C4CCC(=O)NC4=O)C5=O)CC3)CC2)C[C@H]1COc1nc(N2CC3CCC(C2)N3)c2cnc(-c3cccc4ccccc34)c(F)c2n1` (stereo partly drawn) [Compound 19, 5-(4-(1-((3S,5S)-5-(((4-(3,8-diazabicyclo[3.2.1]octan-3-yl)-8-fluoro-7-(naphthalen-1-yl)pyrido[4,3-d]pyrimidin-2-yl)oxy)methyl)-1-methylpyrrolidin-3-yl)piperidine-4-carbonyl)piperazin-1-yl)-2-(2,6-dioxopiperidin-3-yl)isoindoline-1,3-dione formate] was run?
Its IC50 is 0.1 to 1 µM.

What about the IC50 [1] of the same molecule?
The IC50 was > 1 µM.

What about the IC50 [2] of the same molecule?
The IC50 was > 1 µM.

And the GI50 [3]?
The GI50 was > 1 µM.
